Assay results from ChEMBL document CHEMBL1154026, “FXR agonist activity of conformationally constrained analogs of GW 4064” (Bioorg Med Chem Lett, 2009).

Target: T1, Bile acid receptor (Homo sapiens, UniProt Q96RI1)
T1 sequence (Q96RI1 whole entry): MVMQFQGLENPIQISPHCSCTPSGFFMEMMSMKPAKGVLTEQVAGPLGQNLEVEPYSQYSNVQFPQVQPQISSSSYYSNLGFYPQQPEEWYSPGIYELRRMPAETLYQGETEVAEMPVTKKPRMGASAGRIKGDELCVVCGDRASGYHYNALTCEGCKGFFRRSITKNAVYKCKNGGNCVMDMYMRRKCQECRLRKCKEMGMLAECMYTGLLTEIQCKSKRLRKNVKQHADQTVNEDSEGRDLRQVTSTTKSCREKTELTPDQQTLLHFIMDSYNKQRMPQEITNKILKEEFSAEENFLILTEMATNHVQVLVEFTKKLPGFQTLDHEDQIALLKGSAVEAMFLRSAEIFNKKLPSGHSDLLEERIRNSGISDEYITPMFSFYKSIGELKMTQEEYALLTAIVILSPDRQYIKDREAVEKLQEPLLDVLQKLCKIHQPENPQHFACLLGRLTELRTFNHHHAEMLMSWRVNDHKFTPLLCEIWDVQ
Test: Induction of SRC1 coactivator peptide binding to ligand binding domain of human FXR by FRET assay
Details: not given

Compound | EC50 [nM]
CC(C)c1onc(-c2c(Cl)cccc2Cl)c1COc1ccc2c(c1)CCN(c1cccc(C(=O)O)c1)C2=O | 710
CC(C)c1onc(-c2c(Cl)cccc2Cl)c1CCc1nc2cc(-c3cccc(C(=O)O)c3)ccc2o1 | 1200
CC(C)c1onc(-c2c(Cl)cccc2Cl)c1CNc1nc2ccc(-c3cccc(C(=O)O)c3)cc2s1 | 960
CC(C)c1onc(-c2c(Cl)cccc2Cl)c1COc1ccc2c(Cc3cccc(C(=O)O)c3)c[nH]c2c1 | 590
CC(C)c1onc(-c2c(Cl)cccc2Cl)c1COc1ccc2c(c1)ncn2Cc1cccc(C(=O)O)c1 | 1400
CC(C)c1onc(-c2c(Cl)cccc2Cl)c1COc1ccc2c(c1)CN(c1cccc(C(=O)O)c1)C2=O | 670
CC(C)c1onc(-c2c(Cl)cccc2Cl)c1CCc1nc2cccc(Nc3cccc(C(=O)O)c3)c2o1 | 1700
CC(C)c1onc(-c2c(Cl)cccc2Cl)c1COc1ccc2[nH]c(-c3cccc(C(=O)O)c3)cc2c1 | 480
CC(C)c1onc(-c2c(Cl)cccc2Cl)c1COc1ccc2cc(-c3ccc(C(=O)O)cc3)ccc2c1 | 440
CC(C)c1onc(-c2c(Cl)cccc2Cl)c1COc1ccc2[nH]cc(Cc3cccc(C(=O)O)c3)c2c1 | 1500
CC(C)c1onc(-c2c(Cl)cccc2Cl)c1COc1ccc2c(c1)CC(=O)N(c1cccc(C(=O)O)c1)C2 | 1100

The next molecules have a lower EC50 than those just listed; values first:

EC50 [nM] | Compound
140 | CC(C)c1onc(-c2c(Cl)cccc2Cl)c1COc1ccc2cc(-c3cccc(C(=O)O)c3)sc2c1
280 | CC(C)c1onc(-c2c(Cl)cccc2Cl)c1COc1ccc2sc(-c3ccc(C(=O)O)cc3)cc2c1
410 | CC(C)c1onc(-c2c(Cl)cccc2Cl)c1COc1ccc2nc(-c3cccc(C(=O)O)c3)sc2c1
160 | CC(C)c1onc(-c2c(Cl)cccc2Cl)c1COc1ccc2c(ccn2S(=O)(=O)c2cccc(C(=O)O)c2)c1
150 | CC(C)c1onc(-c2c(Cl)cccc2Cl)c1COc1ccc2c(ccn2C(=O)c2cccc(C(=O)O)c2)c1
55 | CC(C)c1onc(-c2c(Cl)cccc2Cl)c1COc1ccc2sc(-c3cccc(C(=O)O)c3)cc2c1
110 | CC(C)c1onc(-c2c(Cl)cccc2Cl)c1COc1ccc2cc(-c3cccc(C(=O)O)c3)ccc2c1
320 | CC(C)c1onc(-c2c(Cl)cccc2Cl)c1COc1ccc2c(ccn2Cc2cccc(C(=O)O)c2)c1
160 | CC(C)c1onc(-c2c(Cl)cccc2Cl)c1COc1ccc2c(ccn2Cc2ccc(C(=O)O)cc2)c1
200 | CC(C)c1onc(-c2c(Cl)cccc2Cl)c1COc1ccc2cc(-c3ccc(C(=O)O)cc3)sc2c1
320 | CC(C)c1onc(-c2c(Cl)cccc2Cl)c1COc1ccc2c(Nc3cccc(C(=O)O)c3)cccc2c1

Test system: not listed separately
Test: Volume of distribution at steady state in rat at 1 mg/kg, iv
Assay type: ADME, organism-based
Parameters: dose 1 mg/kg, route intravenous
Details: in vivo, read-out: Vdss

Vd [L/kg] | Compound
0.085 | CC(C)c1onc(-c2c(Cl)cccc2Cl)c1COc1ccc2c(c1)ncn2Cc1cccc(C(=O)O)c1
0.72 | CC(C)c1onc(-c2c(Cl)cccc2Cl)c1COc1ccc2sc(-c3cccc(C(=O)O)c3)cc2c1
0.07 | CC(C)c1onc(-c2c(Cl)cccc2Cl)c1COc1ccc2c(ccn2Cc2cccc(C(=O)O)c2)c1

Target: T1, Bile acid receptor
Test: Increase in human FXR-mediated transient transcription of luciferase reporter gene transfected in african green monkey CV1 cells
Assay type: cell-based, CV-1
Details: not given

Compound | EC50 [nM]
CC(C)c1onc(-c2c(Cl)cccc2Cl)c1COc1ccc2c(c1)CCN(c1cccc(C(=O)O)c1)C2=O | 8300
CC(C)c1onc(-c2c(Cl)cccc2Cl)c1CCc1nc2cc(-c3cccc(C(=O)O)c3)ccc2o1 | 710
CC(C)c1onc(-c2c(Cl)cccc2Cl)c1CNc1nc2ccc(-c3cccc(C(=O)O)c3)cc2s1 | 380
CC(C)c1onc(-c2c(Cl)cccc2Cl)c1COc1ccc2c(Cc3cccc(C(=O)O)c3)c[nH]c2c1 | 930
CC(C)c1onc(-c2c(Cl)cccc2Cl)c1COc1ccc2c(c1)ncn2Cc1cccc(C(=O)O)c1 | 5000
CC(C)c1onc(-c2c(Cl)cccc2Cl)c1COc1ccc2c(c1)CN(c1cccc(C(=O)O)c1)C2=O | 1100
CC(C)c1onc(-c2c(Cl)cccc2Cl)c1CCc1nc2cccc(Nc3cccc(C(=O)O)c3)c2o1 | > 10000
CC(C)c1onc(-c2c(Cl)cccc2Cl)c1COc1ccc2[nH]c(-c3cccc(C(=O)O)c3)cc2c1 | 630
CC(C)c1onc(-c2c(Cl)cccc2Cl)c1COc1ccc2cc(-c3ccc(C(=O)O)cc3)ccc2c1 | 980
CC(C)c1onc(-c2c(Cl)cccc2Cl)c1COc1ccc2[nH]cc(Cc3cccc(C(=O)O)c3)c2c1 | > 10000
CC(C)c1onc(-c2c(Cl)cccc2Cl)c1COc1ccc2c(c1)CC(=O)N(c1cccc(C(=O)O)c1)C2 | > 10000

Further lines, results first:

EC50 [nM] | Compound
63 | CC(C)c1onc(-c2c(Cl)cccc2Cl)c1COc1ccc2cc(-c3cccc(C(=O)O)c3)sc2c1
160 | CC(C)c1onc(-c2c(Cl)cccc2Cl)c1COc1ccc2sc(-c3ccc(C(=O)O)cc3)cc2c1
410 | CC(C)c1onc(-c2c(Cl)cccc2Cl)c1COc1ccc2nc(-c3cccc(C(=O)O)c3)sc2c1
1300 | CC(C)c1onc(-c2c(Cl)cccc2Cl)c1COc1ccc2c(ccn2S(=O)(=O)c2cccc(C(=O)O)c2)c1
860 | CC(C)c1onc(-c2c(Cl)cccc2Cl)c1COc1ccc2c(ccn2C(=O)c2cccc(C(=O)O)c2)c1
32 | CC(C)c1onc(-c2c(Cl)cccc2Cl)c1COc1ccc2sc(-c3cccc(C(=O)O)c3)cc2c1
130 | CC(C)c1onc(-c2c(Cl)cccc2Cl)c1COc1ccc2cc(-c3cccc(C(=O)O)c3)ccc2c1
210 | CC(C)c1onc(-c2c(Cl)cccc2Cl)c1COc1ccc2c(ccn2Cc2cccc(C(=O)O)c2)c1
330 | CC(C)c1onc(-c2c(Cl)cccc2Cl)c1COc1ccc2c(ccn2Cc2ccc(C(=O)O)cc2)c1
220 | CC(C)c1onc(-c2c(Cl)cccc2Cl)c1COc1ccc2cc(-c3ccc(C(=O)O)cc3)sc2c1
81 | CC(C)c1onc(-c2c(Cl)cccc2Cl)c1COc1ccc2c(Nc3cccc(C(=O)O)c3)cccc2c1

Test system: not listed separately
Test: Terminal half life in rat at 1 mg/kg, iv
Assay type: ADME, organism-based
Parameters: dose 1 mg/kg, route intravenous
Details: in vivo, read-out: beta t1/2

half-life [min] | Compound
31 | CC(C)c1onc(-c2c(Cl)cccc2Cl)c1COc1ccc2c(c1)ncn2Cc1cccc(C(=O)O)c1
15 | CC(C)c1onc(-c2c(Cl)cccc2Cl)c1COc1ccc2sc(-c3cccc(C(=O)O)c3)cc2c1
45 | CC(C)c1onc(-c2c(Cl)cccc2Cl)c1COc1ccc2c(ccn2Cc2cccc(C(=O)O)c2)c1

Target: T2, Bile acid receptor (Homo sapiens) (UniProt Q96RI1)
T2 sequence (whole entry): T1 sequence (Q96RI1 whole entry)
Test: Increase in human FXR-mediated transient transcription of luciferase reporter gene transfected in african green monkey CV1 cells relative to GW-4064
Assay type: cell-based
Parameters: concentration or dose not given beside the values
Details: CV-1

Compound | Activity [%]
CC(C)c1onc(-c2c(Cl)cccc2Cl)c1COc1ccc2c(c1)CCN(c1cccc(C(=O)O)c1)C2=O | 112
CC(C)c1onc(-c2c(Cl)cccc2Cl)c1CCc1nc2cc(-c3cccc(C(=O)O)c3)ccc2o1 | 75
CC(C)c1onc(-c2c(Cl)cccc2Cl)c1CNc1nc2ccc(-c3cccc(C(=O)O)c3)cc2s1 | 123
CC(C)c1onc(-c2c(Cl)cccc2Cl)c1COc1ccc2c(Cc3cccc(C(=O)O)c3)c[nH]c2c1 | 32
CC(C)c1onc(-c2c(Cl)cccc2Cl)c1COc1ccc2c(c1)ncn2Cc1cccc(C(=O)O)c1 | 40
CC(C)c1onc(-c2c(Cl)cccc2Cl)c1COc1ccc2c(c1)CN(c1cccc(C(=O)O)c1)C2=O | 61
CC(C)c1onc(-c2c(Cl)cccc2Cl)c1COc1ccc2[nH]c(-c3cccc(C(=O)O)c3)cc2c1 | 103
CC(C)c1onc(-c2c(Cl)cccc2Cl)c1COc1ccc2cc(-c3ccc(C(=O)O)cc3)ccc2c1 | 170

Further lines, results first:

Activity [%] | Compound
93 | CC(C)c1onc(-c2c(Cl)cccc2Cl)c1COc1ccc2cc(-c3cccc(C(=O)O)c3)sc2c1
89 | CC(C)c1onc(-c2c(Cl)cccc2Cl)c1COc1ccc2sc(-c3ccc(C(=O)O)cc3)cc2c1
86 | CC(C)c1onc(-c2c(Cl)cccc2Cl)c1COc1ccc2nc(-c3cccc(C(=O)O)c3)sc2c1
63 | CC(C)c1onc(-c2c(Cl)cccc2Cl)c1COc1ccc2c(ccn2S(=O)(=O)c2cccc(C(=O)O)c2)c1
63 | CC(C)c1onc(-c2c(Cl)cccc2Cl)c1COc1ccc2c(ccn2C(=O)c2cccc(C(=O)O)c2)c1
87 | CC(C)c1onc(-c2c(Cl)cccc2Cl)c1COc1ccc2sc(-c3cccc(C(=O)O)c3)cc2c1
103 | CC(C)c1onc(-c2c(Cl)cccc2Cl)c1COc1ccc2cc(-c3cccc(C(=O)O)c3)ccc2c1
84 | CC(C)c1onc(-c2c(Cl)cccc2Cl)c1COc1ccc2c(ccn2Cc2cccc(C(=O)O)c2)c1
79 | CC(C)c1onc(-c2c(Cl)cccc2Cl)c1COc1ccc2c(ccn2Cc2ccc(C(=O)O)cc2)c1
79 | CC(C)c1onc(-c2c(Cl)cccc2Cl)c1COc1ccc2cc(-c3ccc(C(=O)O)cc3)sc2c1
57 | CC(C)c1onc(-c2c(Cl)cccc2Cl)c1COc1ccc2c(Nc3cccc(C(=O)O)c3)cccc2c1

Target: T2, Bile acid receptor (Homo sapiens)
Test: Induction of SRC1 coactivator peptide binding to ligand binding domain of human FXR by FRET assay relative to GW-4064
Parameters: concentration or dose not given beside the values
Details: not given

Compound | Activity [%]
CC(C)c1onc(-c2c(Cl)cccc2Cl)c1COc1ccc2c(c1)CCN(c1cccc(C(=O)O)c1)C2=O | 52
CC(C)c1onc(-c2c(Cl)cccc2Cl)c1CCc1nc2cc(-c3cccc(C(=O)O)c3)ccc2o1 | 41
CC(C)c1onc(-c2c(Cl)cccc2Cl)c1CNc1nc2ccc(-c3cccc(C(=O)O)c3)cc2s1 | 91
CC(C)c1onc(-c2c(Cl)cccc2Cl)c1COc1ccc2c(Cc3cccc(C(=O)O)c3)c[nH]c2c1 | 81
CC(C)c1onc(-c2c(Cl)cccc2Cl)c1COc1ccc2c(c1)ncn2Cc1cccc(C(=O)O)c1 | 38
CC(C)c1onc(-c2c(Cl)cccc2Cl)c1COc1ccc2c(c1)CN(c1cccc(C(=O)O)c1)C2=O | 59
CC(C)c1onc(-c2c(Cl)cccc2Cl)c1CCc1nc2cccc(Nc3cccc(C(=O)O)c3)c2o1 | 19
CC(C)c1onc(-c2c(Cl)cccc2Cl)c1COc1ccc2[nH]c(-c3cccc(C(=O)O)c3)cc2c1 | 81
CC(C)c1onc(-c2c(Cl)cccc2Cl)c1COc1ccc2cc(-c3ccc(C(=O)O)cc3)ccc2c1 | 68
CC(C)c1onc(-c2c(Cl)cccc2Cl)c1COc1ccc2[nH]cc(Cc3cccc(C(=O)O)c3)c2c1 | 25
CC(C)c1onc(-c2c(Cl)cccc2Cl)c1COc1ccc2c(c1)CC(=O)N(c1cccc(C(=O)O)c1)C2 | 75

Other lines, results leading:

Activity [%] | Compound
92 | CC(C)c1onc(-c2c(Cl)cccc2Cl)c1COc1ccc2cc(-c3cccc(C(=O)O)c3)sc2c1
80 | CC(C)c1onc(-c2c(Cl)cccc2Cl)c1COc1ccc2sc(-c3ccc(C(=O)O)cc3)cc2c1
72 | CC(C)c1onc(-c2c(Cl)cccc2Cl)c1COc1ccc2nc(-c3cccc(C(=O)O)c3)sc2c1
87 | CC(C)c1onc(-c2c(Cl)cccc2Cl)c1COc1ccc2c(ccn2S(=O)(=O)c2cccc(C(=O)O)c2)c1
68 | CC(C)c1onc(-c2c(Cl)cccc2Cl)c1COc1ccc2c(ccn2C(=O)c2cccc(C(=O)O)c2)c1
90 | CC(C)c1onc(-c2c(Cl)cccc2Cl)c1COc1ccc2sc(-c3cccc(C(=O)O)c3)cc2c1
88 | CC(C)c1onc(-c2c(Cl)cccc2Cl)c1COc1ccc2cc(-c3cccc(C(=O)O)c3)ccc2c1
80 | CC(C)c1onc(-c2c(Cl)cccc2Cl)c1COc1ccc2c(ccn2Cc2cccc(C(=O)O)c2)c1
80 | CC(C)c1onc(-c2c(Cl)cccc2Cl)c1COc1ccc2c(ccn2Cc2ccc(C(=O)O)cc2)c1
95 | CC(C)c1onc(-c2c(Cl)cccc2Cl)c1COc1ccc2cc(-c3ccc(C(=O)O)cc3)sc2c1
95 | CC(C)c1onc(-c2c(Cl)cccc2Cl)c1COc1ccc2c(Nc3cccc(C(=O)O)c3)cccc2c1

Test system: not listed separately
Test: Total clearance in rat at 1 mg/kg, iv
Assay type: ADME, organism-based
Parameters: dose 1 mg/kg, route intravenous
Details: in vivo

clearance [mL/min/kg] | Compound
4.4 | CC(C)c1onc(-c2c(Cl)cccc2Cl)c1COc1ccc2c(c1)ncn2Cc1cccc(C(=O)O)c1
66 | CC(C)c1onc(-c2c(Cl)cccc2Cl)c1COc1ccc2sc(-c3cccc(C(=O)O)c3)cc2c1
6.7 | CC(C)c1onc(-c2c(Cl)cccc2Cl)c1COc1ccc2c(ccn2Cc2cccc(C(=O)O)c2)c1

Test system: not listed separately
Test: Oral bioavailability in rat at 5 mg/kg
Assay type: ADME, organism-based
Details: in vivo

bioavailability [%] | Compound
26 | CC(C)c1onc(-c2c(Cl)cccc2Cl)c1COc1ccc2c(c1)ncn2Cc1cccc(C(=O)O)c1
8.5 | CC(C)c1onc(-c2c(Cl)cccc2Cl)c1COc1ccc2sc(-c3cccc(C(=O)O)c3)cc2c1
12 | CC(C)c1onc(-c2c(Cl)cccc2Cl)c1COc1ccc2c(ccn2Cc2cccc(C(=O)O)c2)c1
